The values below are quoted from earlier work in US20080319015A1, “Insect Repellent Mixture” (priority 2005, published 2008).

The series deals with biting mosquitoes. Particulars: proportion of about 10% by weight in a formulation.

In the case of `CCCCN(CCC(=O)OCC)C(C)=O` [ethyl butylacetylaminopropionate, ethyl 3-(N-n-butyl-N-acetylamino)propionate], the protection times result is given as “up to 4 hours”.
